Measurements taken from ChEMBL document CHEMBL5338809, “Fragment-Based Discovery of Azocyclic Alkyl Naphthalenesulfonamides as Keap1-Nrf2 Inhibitors for Acute Lung Injury Treatment” (J Med Chem, 2023).
In brackets after ≈: the same amount, converted by molar mass. Activity calls are given as the source filed them. The calls are words filed in the database; no cut-off is given here.

Legend:
Mus musculus [1] = experiment: (§1) Antiinflammatory activity in LPS-induced C57BL/6 mouse model of […] assessed as inhibition of TNFalpha expression in lung tissue at 2.5 to 10 mg/kg, ip pretreated with compound for 30 mins followed by LPS stimulation and measured after 6 hrs by qRT-PCR analysis; type: functional, organism-based; conditions: dose 2.5-10 mg/kg, time 390.0 min
Mus musculus [2] = experiment: Antiinflammatory activity in LPS-induced C57BL/6 mouse model of […] assessed as inhibition of IL1beta expression in lung tissue at 2.5 to 10 mg/kg, ip pretreated with compound for 30 mins followed by LPS stimulation and measured after 6 hrs by qRT-PCR analysis; type: functional, organism-based; conditions: dose 2.5-10 mg/kg, time 390.0 min
Mus musculus [3] = experiment: as §1, with “reduction in inflammatory cell infiltrations” for “inhibition of TNFalpha expression”, “hematoxylin and eosin staining method” for “qRT-PCR analysis”; type: functional, organism-based; conditions: dose 2.5-10 mg/kg, time 390.0 min
Peritoneal macrophage [4] = experiment: Antiinflammatory activity in mouse peritoneal macrophages assessed as reduction in LPS-induced IL6 level at 10 uM incubated for 4 hrs by ELISA method; type: functional, cell-based
Mus musculus [5] = experiment: Antiinflammatory activity in LPS-induced C57BL/6 mouse model of […] assessed as inhibition of IL6 level in BALF administered intraperitoneally pretreated with compound for 30 mins followed by LPS stimulation and measured after 6 hrs by ELISA method; type: functional, organism-based; conditions: dose 2.5-10 mg/kg, route ip, time 390.0 min
[6] = target: Keap1/Nrf2 (Homo sapiens) (UniProt Q16236+Q14145); experiment: Binding affinity to human Keap1-Nrf2 protein-protein interaction assessed as dissociation constant (Kd2) incubated for 60 mins by fluorescent polarization assay
Keap1/Nrf2 (Homo sapiens), sequence (Q14145 whole entry, looked up): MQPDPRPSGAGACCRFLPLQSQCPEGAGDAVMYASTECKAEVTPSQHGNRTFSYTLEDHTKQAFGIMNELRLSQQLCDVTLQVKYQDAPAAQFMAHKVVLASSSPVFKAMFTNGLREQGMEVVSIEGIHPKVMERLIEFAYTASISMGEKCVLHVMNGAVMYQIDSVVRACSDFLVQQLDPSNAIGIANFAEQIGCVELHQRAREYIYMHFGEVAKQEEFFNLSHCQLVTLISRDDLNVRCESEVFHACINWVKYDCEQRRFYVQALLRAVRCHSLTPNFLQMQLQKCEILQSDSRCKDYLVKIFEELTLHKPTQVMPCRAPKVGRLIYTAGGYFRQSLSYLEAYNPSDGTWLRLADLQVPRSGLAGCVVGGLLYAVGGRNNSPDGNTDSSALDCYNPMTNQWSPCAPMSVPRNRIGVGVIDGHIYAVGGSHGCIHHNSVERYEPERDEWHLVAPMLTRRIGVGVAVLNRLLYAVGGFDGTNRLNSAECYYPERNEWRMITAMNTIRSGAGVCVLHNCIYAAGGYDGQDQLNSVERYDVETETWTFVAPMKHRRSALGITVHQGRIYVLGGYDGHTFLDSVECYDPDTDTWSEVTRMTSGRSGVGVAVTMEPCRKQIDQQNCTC
Keap1/Nrf2 (Homo sapiens), sequence (Q16236 whole entry, looked up): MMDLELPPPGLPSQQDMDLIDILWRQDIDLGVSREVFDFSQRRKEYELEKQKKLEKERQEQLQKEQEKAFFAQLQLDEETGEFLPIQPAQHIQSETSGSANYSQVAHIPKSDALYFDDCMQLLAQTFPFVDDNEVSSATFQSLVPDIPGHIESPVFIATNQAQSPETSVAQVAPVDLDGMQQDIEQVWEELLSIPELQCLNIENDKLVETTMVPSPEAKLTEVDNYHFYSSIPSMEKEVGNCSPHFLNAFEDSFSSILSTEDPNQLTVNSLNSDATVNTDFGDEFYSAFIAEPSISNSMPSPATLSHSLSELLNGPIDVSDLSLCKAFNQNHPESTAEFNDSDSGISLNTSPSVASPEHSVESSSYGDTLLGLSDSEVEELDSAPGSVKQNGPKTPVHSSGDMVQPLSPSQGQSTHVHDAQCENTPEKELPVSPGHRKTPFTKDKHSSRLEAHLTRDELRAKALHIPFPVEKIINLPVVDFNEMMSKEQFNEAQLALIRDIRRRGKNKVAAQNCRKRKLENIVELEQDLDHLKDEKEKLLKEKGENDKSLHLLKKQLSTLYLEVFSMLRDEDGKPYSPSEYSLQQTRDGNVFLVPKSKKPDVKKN

Mus musculus [7] = experiment: Antiinflammatory activity in LPS-induced C57BL/6 mouse model of […] assessed as inhibition of TNFalpha level in BALF administered intraperitoneally pretreated with compound for 30 mins followed by LPS stimulation and measured after 6 hrs by ELISA method; type: functional, organism-based; conditions: dose 2.5-10 mg/kg, route ip, time 390.0 min
Mus musculus [8] = experiment: Antiinflammatory activity in LPS-induced C57BL/6 mouse model of […] assessed as inhibition of IL6 expression in lung tissue at 2.5 to 10 mg/kg, ip pretreated with compound for 30 mins followed by LPS stimulation and measured after 6 hrs by qRT-PCR analysis; type: functional, organism-based; conditions: dose 2.5-10 mg/kg, time 390.0 min
Mus musculus [9] = experiment: Antiinflammatory activity in LPS-induced C57BL/6 mouse model of […] assessed as inhibition of IL1beta level in BALF administered intraperitoneally pretreated with compound for 30 mins followed by LPS stimulation and measured after 6 hrs by ELISA method; type: functional, organism-based; conditions: dose 2.5-10 mg/kg, route ip, time 390.0 min
Mus musculus [10] = experiment: Antiinflammatory activity in LPS-induced C57BL/6 mouse model of […] assessed as reduction in congestion in lung tissue at 2.5 to 10 mg/kg, ip pretreated with compound for 30 mins followed by LPS stimulation and measured after 6 hrs by hematoxylin and eosin staining method; type: functional, organism-based; conditions: dose 2.5-10 mg/kg, time 390.0 min
Mus musculus [11] = experiment: Antiinflammatory activity in LPS-induced C57BL/6 mouse model of […] assessed as reduction in bleeding points in lung tissue at 2.5 to 10 mg/kg, ip pretreated with compound for 30 mins followed by LPS stimulation and measured after 6 hrs by hematoxylin and eosin staining method; type: functional, organism-based; conditions: dose 2.5-10 mg/kg, time 390.0 min
Mus musculus [12] = experiment: Antiinflammatory activity in LPS-induced C57BL/6 mouse model of […] assessed as Nrf2 nuclear translocation in lung tissue at 2.5 to 10 mg/kg, ip pretreated with compound for 30 mins followed by LPS stimulation and measured after 6 hrs by Western blotting analysis; type: functional, organism-based; conditions: dose 2.5-10 mg/kg, time 390.0 min
[13] = Oral bioavailability in Sprague-Dawley rat; type: ADME, organism-based; conditions: in vivo
[14] = AUC (0 to 24 hrs) in Sprague-Dawley rat at 5 mg/kg, iv; type: ADME, organism-based; set-up: dose 5 mg/kg, route iv; conditions: in vivo
[15] = Cytotoxicity against mouse peritoneal macrophages assessed as reduction in cell viability incubated for 24 hrs by Cell titer-blue assay; type: toxicity, cell-based, Peritoneal macrophage
[16] = Clearance in Sprague-Dawley rat at 5 mg/kg, iv; type: ADME, organism-based; conditions: in vivo
[17] = MRT (0 to 24 hrs) in Sprague-Dawley rat at 5 mg/kg, iv; type: ADME, organism-based; conditions: in vivo
[18] = Aqueous solubility of the compound in PBS at pH 7.4 at 2 mg incubated for 24 hrs by HPLC-UV analysis; type: physicochemical
[19] = Apparent volume of distribution in Sprague-Dawley rat at 5 mg/kg, iv; type: ADME, organism-based; conditions: in vivo, read-out: Vz
[20] = AUC (0 to 24 hrs) in Sprague-Dawley rat at 20 mg/kg, ip; type: ADME, organism-based; set-up: dose 20 mg/kg, route ip; conditions: in vivo
[21] = Cmax in Sprague-Dawley rat at 20 mg/kg, ip; type: ADME, organism-based; set-up: dose 20 mg/kg, route ip; conditions: in vivo
[22] = Tmax in Sprague-Dawley rat at 20 mg/kg, ip; type: ADME, organism-based; conditions: in vivo
[23] = MRT (0 to infinity) in Sprague-Dawley rat at 5 mg/kg, iv; type: ADME, organism-based; conditions: in vivo
[24] = MRT (0 to infinity) in Sprague-Dawley rat at 20 mg/kg, ip; type: ADME, organism-based; conditions: in vivo
[25] = Half life in Sprague-Dawley rat at 20 mg/kg, ip; type: ADME, organism-based; conditions: in vivo
[26] = MRT (0 to 24 hrs) in Sprague-Dawley rat at 20 mg/kg, ip; type: ADME, organism-based; conditions: in vivo
[27] = AUC (0 to infinity) in Sprague-Dawley rat at 5 mg/kg, iv; type: ADME, organism-based; set-up: dose 5 mg/kg, route iv; conditions: in vivo
[28] = Half life in Sprague-Dawley rat at 5 mg/kg, iv; type: ADME, organism-based; conditions: in vivo
[29] = Apparent volume of distribution in Sprague-Dawley rat at 20 mg/kg, ip; type: ADME, organism-based; conditions: in vivo
[30] = Aqueous solubility of the compound in PBS at pH 2 at 2 mg incubated for 24 hrs by HPLC-UV analysis; type: physicochemical
Peritoneal macrophage [31] = experiment: Antiinflammatory activity in mouse peritoneal macrophages assessed as fold reduction in LPS-induced TNFalpha level at 10 uM incubated for 4 hrs by ELISA method; type: functional
[32] = Aqueous solubility of the compound in PBS at pH 7 at 2 mg incubated for 24 hrs by HPLC-UV analysis; type: physicochemical
[33] = Clearance in Sprague-Dawley rat at 20 mg/kg, ip; type: ADME, organism-based; conditions: in vivo
[34] = AUC (0 to infinity) in Sprague-Dawley rat at 20 mg/kg, ip; type: ADME, organism-based; set-up: dose 20 mg/kg, route ip; conditions: in vivo

COc1ccc(S(=O)(=O)N(CC(N)=O)c2ccc(N(CC(N)=O)S(=O)(=O)c3ccc(NC(=O)[C@H]4CCN4)cc3)c3ccccc23)cc1 [listing 1 of 2 here]
inhibition (Mus musculus [1]): Active
inhibition (Mus musculus [2]): Active
Activity (Mus musculus [3]): Active
Activity (Peritoneal macrophage [4]): Active
inhibition (Mus musculus [5]): Dose-Dependent Effect
K [6]: 220 nM
inhibition (Mus musculus [7]): Dose-Dependent Effect
inhibition (Mus musculus [8]): Active
inhibition (Mus musculus [9]): Dose-Dependent Effect
Activity (Mus musculus [10]): Active
Activity (Mus musculus [11]): Active
Activity (Mus musculus [12]): Active

CCN1CCN(CCC(=O)Nc2ccc(S(=O)(=O)N(CC(N)=O)c3ccc(N(CC(N)=O)S(=O)(=O)c4ccc(OC)cc4)c4ccccc34)cc2)CC1.Cl
bioavailability [13]: 20%

COc1ccc(S(=O)(=O)N(CC(N)=O)c2ccc(N(CC(N)=O)S(=O)(=O)c3ccc(NC(=O)[C@H]4CCN4)cc3)c3ccccc23)cc1 [listing 2 of 2 here]
AUC(0-t) [14]: 1390 ng·h/mL
CC50 at 24 h [15]: > 100 µM
clearance [16]: 57.4 mL/min/kg
MRT last [17]: 2.83 h
solubility at 24 h [18]: 216 µg/mL (≈ 318 µM)
Vd [19]: 60.5 L/kg
AUC(0-t) [20]: 11200 ng·h/mL
Cmax [21]: 8430 ng/mL
Tmax [22]: 0.38 h
MRT inf [23]: 9.67 h
MRT inf [24]: 1.97 h
half-life [25]: 5.75 h
MRT last [26]: 1.75 h
AUC(0-inf) [27]: 1590 ng·h/mL
half-life [28]: 12.7 h
Vz [29]: 16.24474 L/kg
solubility at 24 h [30]: 601 µg/mL (≈ 883 µM)
fold change (FC) (Peritoneal macrophage [31]): <=0.5
solubility at 24 h [32]: 404 µg/mL (≈ 593 µM)
CL/F [33]: 31.8 mL/min/kg
AUC(0-inf) [34]: 11200 ng·h/mL
